{"source": "patent US8557512B2", "about": "“Method of screening activators and/or inhibitors of insulin receptor substrate 2” (HMI Medical Innovations, LLC, priority 2003, dated 2013)", "key": {"IRS2 [1]": {"tested_on": "IRS2", "assay": "IRS2 levels in mouse islets", "type": "cell-based", "from_the_text": "(§1) Drugs that increase IRS2 expression in mice stimulate beta cell function. An example of such a drug is exendin-4. Exendin-4 is a homolog of the natural peptide produced in the intestine called glucagon-like peptide-1. GLP1/Ex4 upregulates IRS2 levels in β-cells because they stimulate the production of cAMP. […] Other drugs that increase cAMP levels in these and other cells also increase IRS2 levels and stimulate its signaling pathways. Many of the positive actions of GLPL1/Ex4 on mouse and human cells are prevented by blocking the IRS2 gene from expressing its IRS2 protein product."}, "IRS2 [2]": {"tested_on": "IRS2", "assay": "IRS2 levels in human islets", "type": "cell-based", "from_the_text": "as §1"}, "IRS2 [3]": {"tested_on": "IRS2", "assay": "IRS2 upregulation in beta cells and other cells", "type": "cell-based", "from_the_text": "(§2) Furthermore, GLP-1 also stimulates β-cell proliferation and neogenesis, and reduces or eliminates apoptosis of β-cells."}, "IRS2 [4]": {"tested_on": "IRS2", "settings": "β-cell lines; Jhala et al., Genes Dev. 17:1575-1580 (2003); cited from earlier work"}, "IRS2 mice": {"tested_on": "IRS2 mice", "assay": "Restoration of normal glucose homeostasis in IRS2 mice", "type": "in vivo", "settings": "administration by injection", "from_the_text": "as §2"}}, "note": "Where no end group is shown, it is not given here."}
{"substance": "glucagon-like peptide-1 (HAEGTFTSDVSSYLEGQAAKEFIAWLVKGR; ends and bridges not checked; UniProt P01275 98-127, looked up) [GLP-1, natural peptide produced in the intestine]", "values": [{"measurement": "levels of IRS2", "setting": "IRS2 [1]", "value": "upregulate the levels of IRS2"}, {"measurement": "levels of IRS2", "setting": "IRS2 [2]", "value": "upregulate the levels of IRS2"}, {"measurement": "IRS2 upregulation", "setting": "IRS2 [3]", "value": "strongly up regulates IRS2"}, {"measurement": "IRS2 expression", "setting": "IRS2 [4]", "value": "strongly increases IRS2 expression"}]}
{"substance": "exendin-4", "values": [{"measurement": "levels of IRS2", "setting": "IRS2 [1]", "value": "upregulate the levels of IRS2"}, {"measurement": "levels of IRS2", "setting": "IRS2 [2]", "value": "upregulate the levels of IRS2"}, {"measurement": "restore normal glucose homeostasis", "setting": "IRS2 mice", "value": "unsuccessful"}, {"measurement": "IRS2 expression", "setting": "IRS2 [4]", "value": "strongly increases IRS2 expression"}]}
